Assay results published in US20120122727A1, “IN VITRO METHOD FOR PREDICTING WHETHER A COMPOUND IS GENOTOXIC IN VIVO” (priority 2009, published 2012).

How the values were obtained:
[1] = test system: primary mouse hepatocytes; test: Gene expression in primary mouse hepatocytes, GTX vs non-GTX (four-gene classifier, 24 h)
[2] = test system: primary mouse hepatocytes; test: Gene expression (Affymetrix Mouse Genome 430 2.0) in primary mouse hepatocytes, true vs false GTX, 24 h and 48 h
[3] = test system: primary mouse hepatocytes

## Mitomycin C [MitC]
[1]
  score 1700007K13RIK: 1
  score DDIT4L: 1
  score GAS2L3: 1
  score SPC25: 1
[2]
  Gene expression AA561726 average: −4.372
  Gene expression AF000969 average: −3.3606
  Gene expression AF022072 average: −3.37
  Gene expression AF033112 average: 2.219
  Gene expression AF055573 average: −2.916
  Gene expression AF069954 average: 2.26
  Gene expression AF297615 average: 1.841
  Gene expression AF335325 average: 1.755
  Gene expression AI594683 average: 4.611
  Gene expression AI747296 average: −2.056
  Gene expression AK005731 average: 6.089
  Gene expression AK007854 average: 1.5
  Gene expression AK010447 average: −1.6388
  Gene expression AK010738 average: 1.98
  Gene expression AK014608 average: 2.8746
  Gene expression AK017734 average: 1.835
  Gene expression AK018383 average: 0.994
  Gene expression AK019979 average: −3.757
  Gene expression AV095209 average: −2.78
  Gene expression AV141095 average: −2.411
  Gene expression AV173869 average: −2.2889
  Gene expression AV216768 average: −4.149
  Gene expression AV219418 average: 4.168
  Gene expression AV221299 average: −3.71
  Gene expression AV246296 average: 1.4788
  Gene expression AV251625 average: 2.477
  Gene expression AV254764 average: 1.411
  Gene expression AV327248 average: 4.918
  Gene expression BB009155 average: 2.9201
  Gene expression BB027848 average: 1.879
  Gene expression BB043558 average: 2.332
  Gene expression BB046347 average: 1.35
  Gene expression BB140436 average: −1.601
  Gene expression BB204486 average: −4.144
  Gene expression BB223872 average: 2.201
  Gene expression BB246912 average: −1.866
  Gene expression BB275142 average: 2.282
  Gene expression BB458460 average: −2.7207
  Gene expression BB463610 average: 2.728
  Gene expression BB730977 average: −2.36
  Gene expression BB743970 average: 3.5588
  Gene expression BB770528 average: 2.0332
  Gene expression BB781615 average: 0.8952
  Gene expression BC003284 average: 2.093
  Gene expression BC004827 average: −3.639
  Gene expression BC005552 average: −1.342
  Gene expression BC006713 average: 1.2958
  Gene expression BC010318 average: −1.729
  Gene expression BC012247 average: 2.2674
  Gene expression BC012955 average: −2.241
  Gene expression BC013893 average: 1.864
  Gene expression BC017615 average: −3.947
  Gene expression BC019379 average: −2.7493
  Gene expression BC019882 average: 2.442
  Gene expression BC021352 average: 3.121
  Gene expression BC022148 average: 2.668
  Gene expression BC025169 average: −3.296
  Gene expression BC026131 average: −0.9986
  Gene expression BC027026 average: 2.873
  Gene expression BC027121 average: 2.742
  Gene expression BC027185 average: 2.115
  Gene expression BE956581 average: 3.68
  Gene expression BF719766 average: 2.112
  Gene expression BG065754 average: 1.3079
  Gene expression BG066491 average: −1.929
  Gene expression BG076151 average: 2.5119
  Gene expression BG076333 average: −1.87
  Gene expression BG797099 average: 2.6244
  Gene expression BG967046 average: 1.305
  Gene expression BI651416 average: 2.2069
  Gene expression BI966443 average: 4.094
  Gene expression BM198879 average: 1.928
  Gene expression BM200015 average: 1.702
  Gene expression BM230508 average: 2.571
  Gene expression BM936480 average: 2.006
  Gene expression BQ174991 average: −2.777
  Gene expression L21027 average: −4.612
  Gene expression NM_007556 average: −4.012
  Gene expression NM_007980 average: 2.9391
  Gene expression NM_007987 average: 2.2406
  Gene expression NM_008522 average: 5.9249
  Gene expression NM_008935 average: −3.601
  Gene expression NM_009897 average: 4.658
  Gene expression NM_011075 average: 3.096
  Gene expression NM_011176 average: 1.856
  Gene expression NM_011316 average: 2.256
  Gene expression NM_012006 average: 3.166
  Gene expression NM_013642 average: −0.7845
  Gene expression NM_013738 average: 2.749
  Gene expression NM_013929 average: 2.481
  Gene expression NM_018881 average: 2.279
  Gene expression NM_019738 average: −2.772
  Gene expression NM_030697 average: 3.958
  Gene expression NM_053122 average: −4.049
  Gene expression NM_134147 average: −2.8471
  Gene expression NM_134188 average: 0.4786
  Gene expression X62701 average: −1.3159
  Gene expression data AF000969 (Cadps2): −2.406
  Gene expression data AF022072 (Grb10): −3.6802
  Gene expression data AF065917 (Lif): 1.033
  Gene expression data AF297615 (Ggta1): 2.358
  Gene expression data AI594683 (Dmn): 3.671
  Gene expression data AI596632 (Ptprg /// LOC632664): −4.795
  Gene expression data AI987929 (Ndrg1): −3.324
  Gene expression data AK004419 (Fbxl17): −4.0931
  Gene expression data AK005731 (1700007K13Rik): 5.7645
  Gene expression data AK007766 (1810044A24Rik): −2.227
  Gene expression data AK007854 (1810053B23Rik): 2.898
  Gene expression data AK009736 (Gpr137b /// LOC664862 /// LOC673335): −1.056
  Gene expression data AK010447 (Smyd3): −1.439
  Gene expression data AK014608 (4632434l11Rik): 2.3711
  Gene expression data AK019979 (2610528E23Rik): −3.317
  Gene expression data AV095209 (Mthfd1l): −2.454
  Gene expression data AV141095 (1110033M05Rik): −2.287
  Gene expression data AV173571 (1700106N22Rik): −2.287
  Gene expression data AV219418 (Ldhb): 2.873
  Gene expression data AV223474 (Zdhhc14): −2.283
  Gene expression data AV298304 (Homez): 1.9706
  Gene expression data AV327248 (Zfp365 /// LOC674611): 4.258
  Gene expression data AV377066 (9130221J18Rik): 2.462
  Gene expression data AW240761 (Tbc1d5): −2.643
  Gene expression data AW543460 (Pard3): −3.164
  Gene expression data AW543723: 2.3145
  Gene expression data AW986246 (Maoa): −0.2119
  Gene expression data BB027848 (4732466D17Rik): 2.18
  Gene expression data BB043558 (9230114K14Rik): 2.308
  Gene expression data BB275142 (AW456874): 1.944
  Gene expression data BB308836 (Ppm1l): −1.64
  Gene expression data BB318221 (Zdhhc14): −2.706
  Gene expression data BB463610 (4632434l11Rik): 2.535
  Gene expression data BB526605 (Mipol1): −2.035
  Gene expression data BB770528 (Rai2): 2.603
  Gene expression data BB821363 (Scfd2): −2.485
  Gene expression data BC004827 (Psat1): −2.4733
  Gene expression data BC008626 (Icam1): 2.3005
  Gene expression data BC010462 (BC010462): 1.163
  Gene expression data BC012247 (Dcxr): 2.094
  Gene expression data BC012260 (Psmf1): 2.237
  Gene expression data BC015270 (Hist2h3c2): 0.6339
  Gene expression data BC016073 (Cdkal1): −1.963
  Gene expression data BC016265 (Ube2e2): −2.202
  Gene expression data BC019882 (Acaa1b): 3.446
  Gene expression data BC025501 (Aaas): 2.023
  Gene expression data BC025837 (Sbk1): 1.652
  Gene expression data BC025915 (Cova1): −1.619
  Gene expression data BC026422 (Tgm1): 2.651
  Gene expression data BF719766 (Thyn1): 2.045
  Gene expression data BG065754 (Ccng1): 1.179
  Gene expression data BG066903 (Kif16b): −1.047
  Gene expression data BG069873 (Gnb1l): 2.175
  Gene expression data BG070887 (Gtdc1): −2.356
  Gene expression data BG076151 (Ppm1d): 2.238
  Gene expression data BG261907 (Large): −3.876
  Gene expression data BI651416 (Cdc42bpg): 2.482
  Gene expression data BI660702 (Ell3): 3.742
  Gene expression data BM198879 (Ercc5): 2.012
  Gene expression data BM230508 (A030007D23Rik): 2.556
  Gene expression data NM_007987 (Fas): 2.6645
  Gene expression data NM_008522 (Ltf): 3.9908
  Gene expression data NM_008576 (Abcc1): −1.312
  Gene expression data NM_011176 (St14): 2.078
  Gene expression data NM_011316 (Saa4): 2.611
  Gene expression data NM_012006 (Acot1): 3.959
  Gene expression data NM_013866 (Zfp385): 2.3
  Gene expression data NM_018770 (Igsf4a): −2.054
  Gene expression data NM_021451 (Pmaip1): 2.681
  Gene expression data NM_025770 (Atg10): −1.329
  Gene expression data NM_028803 (Gbe1): −1.8898
  Gene expression data NM_030697 (Ankrd47): 3.874
  Gene expression data NM_053168 (Trim11): 1.4821
  Gene expression data NM_134188 (Acot2): −0.06593
  Gene expression data Y15910 (Diap2): −2.813
[3]
  Gene expression data AF204959 (Cyp3a25 /// LOC622249): 0.8169
